From patent publication US7402589B2, “Tri-substituted ureas as cytokine inhibitors” (The Procter & Gamble Company, priority 2004, dated 2008)

Tested on: TNF-α
Test: TNF-α inhibition in lipopolysaccharide (LPS) stimulated human monocytic cells (THP-1)
Format: cell-based
Details: LPS (1 μg/mL) stimulated THP-1 cells, 4 hours, human TNF-α by ELISA
Source text: In addition, Tumor Necrosis Factor, TNF-α, inhibition can be measured by utilizing lipopolysaccharide (LPS) stimulated human monocytic cells (THP-1) as described in: • i) K. M. Mohler et al., “Protection Against a Lethal Dose of Endotoxin by an Inhibitor of Tumour Necrosis Factor Processing”, Nature, 370, pp 218-220 (1994). • ii) U.S. Pat. No. 6,297,381 B1 Cirillo et al., issued Oct. 2, 2001, incorporated by reference and reproduced herein below in relevant portion thereof.
The inhibition of cytokine production can be observed by measuring inhibition of TNF-α in lipopolysaccharide stimulated THP cells. All cells and reagents are diluted in RPMI 1640 with phenol red and L-glutamine, supplemented with additional L-glutamine (total: 4 mM), penicillin and streptomycin (50 units/mL each) and fetal bovine serum (FBS 3%) (GIBCO, all conc. Final). Assay is performed under sterile conditions, only test compound preparation is non-sterile. Initial stock solutions are made in DMSO followed by dilution into RPMI 1640 2-fold higher than the desired final assay concentration. Confluent THP.1 cells (2×10^7 cells/mL, final conc.; American Type Culture Company, Rockville, Md.) are added to 96 well polypropylene round bottomed culture plates (Costar 3790; sterile) containing 125 μL test compound (2-fold concentrated) or DMSO vehicle (controls, blanks). DMSO concentration should not exceed 0.2% final. Cell mixture is allowed to preincubate for 15 minutes at 37° C., 5% CO2 prior to stimulation with lipopolysaccharide (LPS, 1 μg/mL final; Sigma L-2630, from E. coli serotype 0111.B4; stored as 1 mg/mL stock in endotoxin screened diluted H2O vehicle at −80° C.). Blanks (unstimulated) receive H2O vehicle; final incubation volume is 250 μL. Incubation (4 hours) proceeds as described above. Assay is to be terminated by centrifuging plates 5 minutes at room temperature, 1600 rpm […]; supernatants are then transferred to clean 96 well plates and stored at −80° C. until analyzed for human TNF-α by a commercially available ELISA kit (Biosource #KHC3015, Camarillo, Calif.). The calculated IC50 value is the concentration of the test compound that caused a 50% decrease in the maximal TNF-α production.

Row | IC50 [nM] | Compound
1 | 56 | CCOc1ccc(N(C(=O)NCc2ccccc2Cl)c2ccnc(N[C@@H](C)COC)n2)cc1 [1-(4-Ethoxyphenyl)-1-{2-[(1S)-2-methoxy-1-methyl-ethylamino]-pyrimidin-4-yl}-3-(2-chlorobenzyl)-urea]
2 | 16 | O=C(NCc1ccccc1Cl)N(c1ccc(F)cc1)c1ccnc(NC2CCOCC2)n1 [1-(4-Fluorophenyl)-1-[2-(tetrahydropyran-4-ylamino)-pyrimidin-4-yl]-3-(2-chlorobenzyl)-urea]
3 | 14 | C[C@H](Nc1nccc(N(C(=O)NCc2ccccc2Cl)c2ccc(F)cc2)n1)C(C)(C)O [1-(4-Fluorophenyl)-1-{2-[(1S)-2-hydroxy-1,2-dimethyl-propylamino]-pyrimidin-4-yl}-3-(2-chlorobenzyl)-urea]
4 | 9 | COc1ccc(N(C(=O)NCc2ccccc2Cl)c2ccnc(N[C@@H](C)C(C)(C)O)n2)cc1 [1-(4-Methoxyphenyl)-1-{2-[(1S)-2-hydroxy-1,2-dimethyl-propylamino]-pyrimidin-4-yl}-3-(2-chlorobenzyl)-urea]
5 | 13 | COc1ccc(N(C(=O)NCc2ccccc2F)c2ccnc(N[C@@H](C)C(C)(C)O)n2)cc1 [1-(4-Methoxyphenyl)-1-{2-[(1S)-2-hydroxy-1,2-dimethyl-propylamino]-pyrimidin-4-yl}-3-(2-fluorobenzyl)-urea]
6 | 15 | COc1ccc(N(C(=O)NCc2ccccc2OC)c2ccnc(N[C@@H](C)C(C)(C)O)n2)cc1 [1-(4-Methoxyphenyl)-1-{2-[(1S)-2-hydroxy-1,2-dimethyl-propylamino]-pyrimidin-4-yl}-3-(2-methoxybenzyl)-urea]
7 | 37 | COc1ccc(N(C(=O)NCc2ccccc2C)c2ccnc(N[C@@H](C)C(C)(C)O)n2)cc1 [1-(4-Methoxyphenyl)-1-{2-[(1S)-2-hydroxy-1,2-dimethyl-propylamino]-pyrimidin-4-yl}-3-(2-methylbenzyl)-urea]
